These results are taken from US20250313572A1, “MACROCYCLIC MCL-1 INHIBITORS AND METHODS OF USE” (AbbVie Inc., priority 2017, published 2025).

Where two headings read alike, the source gives them in different places.

The target in one test is GST-MCL-1 (Homo sapiens, UniProt Q07820). In words: TR-FRET MCL-1 binding assay (competition with probe F-Bak). The procedure:
Tb-anti-GST antibody was purchased from Invitrogen (Catalog No. PV4216).
For the assay, an acoustic dispenser was used to prepare dilution series from 10 mM test compounds in 100% DMSO and directly transfer 160 nL into low volume 384-well assay plates. 8 μL of a protein/probe/antibody mix was then added to each well resulting in final concentrations listed below: • Test compound: 11 three-fold dilutions beginning at 25 μM
The samples were then mixed on a shaker for 1 minute and incubated for an additional 2 hours at room temperature. For each assay plate, a probe/antibody and protein/antibody/probe mixture were included as a negative and a positive control, respectively. Fluorescence was measured on the Envision (Perkin Elmer) using a 340/35 nm excitation filter and 520/525 (F-Bak) and 495/510 nm (Tb-labeled anti-his antibody) emission filters. […] The TR-FRET assay can be performed in the presence of varying concentrations of human serum (HS) or fetal bovine serum (FBS). Compounds were tested both without HS and in the presence of 10% HS.

Test [1] deals with NCI-H929 human multiple myeloma tumor cell line. In words: NCI-H929 cell viability assay (CellTiter-Glo, 24 hours). It counts as cell-based. (In general: In ATP-based viability assays light output follows the ATP content of the culture.)
The subject of test [2] is AMO-1 human multiple myeloma tumor cell line. Description: AMO-1 cell viability assay (CellTiter-Glo, 24 hours). Format: cell-based.
Experimental: Each concentration was tested in duplicate at least 3 independent times. A luminescent signal proportional to the number of viable cells following 24 hours of compound treatment was determined using the CellTiter-Glo® Luminescent Cell Viability Assay according to the manufacturer's recommendations (Promega Corp., Madison, WI). The plates were read in a Perkin Elmer Envision using a Luminescence protocol. To generate dose response curves the data is normalized to percent viability by setting the averages of the staurosporine (10 μM) and DMSO only control wells to 0% and 100% viability respectively.
Setting [3] is: MCL-1 Binding Ki (nM, 10% HS), in the presence of 10% HS (human serum).
Setting [4] is: without HS, read-out: MCL-1 Binding Ki.
The mark [5] stands for this setting: read-out: H929 Viability IC50 (μM, 10% FBS), 10% FBS, 24 hours of compound treatment.
Setting [6] is: read-out: AMO-1 Viability IC50 (μM, 10% FBS), 10% FBS, 24 hours of compound treatment.
Where [7] appears, read: Homo sapiens, NCI-H929, 24 h, read-out: H929 Viability IC50 (μM, 10% FBS), 10% FBS, 24 hours of compound treatment.
Setting [8] is: Homo sapiens, AMO1, 24 h, read-out: AMO-1 Viability IC50 (μM, 10% FBS), 10% FBS, 24 hours of compound treatment.

Chain of GST-MCL-1 (Q07820 whole entry): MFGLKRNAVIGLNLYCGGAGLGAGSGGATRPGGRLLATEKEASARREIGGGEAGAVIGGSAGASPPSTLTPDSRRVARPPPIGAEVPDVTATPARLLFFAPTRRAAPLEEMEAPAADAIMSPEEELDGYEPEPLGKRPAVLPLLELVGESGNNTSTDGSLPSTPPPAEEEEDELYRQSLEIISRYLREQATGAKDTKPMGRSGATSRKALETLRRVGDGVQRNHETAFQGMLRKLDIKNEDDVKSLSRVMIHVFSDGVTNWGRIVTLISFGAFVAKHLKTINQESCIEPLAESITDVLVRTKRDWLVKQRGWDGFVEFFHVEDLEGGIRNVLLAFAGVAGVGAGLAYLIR

`Cc1c(Cl)c2c(Cl)c(C)c1-c1c(-c3ccc(F)cc3)sc3ncnc(c13)O[C@@H](C(=O)O)Cc1cc(ccc1OCc1ccnc(C3=CCC(CC(=O)O)CC3)n1)OC[C@@H](CN1CCN(C)CC1)O2` (single isomer, unassigned) [Example 37, (7R,16R)-10-({2-[(4R*)-4-(carboxymethyl)cyclohex-1-en-1-yl]pyrimidin-4-yl}methoxy)-19,23-dichloro-1-(4-fluorophenyl)-20,22-dimethyl-16-[(4-methylpiperazin-1-yl)methyl]-7,8,15,16-tetrahydro-18,21-etheno-13,9-(metheno)-6,14,17-trioxa-2-thia-3,5-diazacyclononadeca[1,2,3-cd]indene-7-carboxylic Acid]: the Ki at GST-MCL-1 (setting [3]) was determined as 0.124 nM; on GST-MCL-1 (setting [4]), 0.009 nM. The IC50 in test [1] (setting [5]) amounted to 0.0167 µM; in test [2] (setting [6]), 0.0096 µM.
Take `COCCOCCOCCOCCOCCOCC1(C)CC=C(c2nccc(COc3ccc4cc3C[C@H](C(=O)O)Oc3ncnc5sc(-c6ccc(F)cc6)c(c35)-c3c(C)c(Cl)c(c(Cl)c3C)O[C@H](CN3CCN(C)CC3)CO4)n2)CC1` (single isomer, unassigned) [Example 85, (7R,16R)-19,23-dichloro-1-(4-fluorophenyl)-10-({2-[(4S*)-4-(2,5,8,11,14,17-hexaoxaoctadecan-1-yl)-4-methylcyclohex-1-en-1-yl]pyrimidin-4-yl}methoxy)-20,22-dimethyl-16-[(4-methylpiperazin-1-yl)methyl]-7,8,15,16-tetrahydro-18,21-etheno-13,9-(metheno)-6,14,17-trioxa-2-thia-3,5-diazacyclononadeca[1,2,3-cd]indene-7-carboxylic Acid]: the Ki at GST-MCL-1 (setting [3]) is 0.191 nM; on GST-MCL-1 (setting [4]), 0.029 nM. Also, the figures for the IC50 in test [1] (setting [5]) and in test [2] (setting [6]) were 0.000485 µM and 0.000198 µM, respectively.
With `COCCOCCOCC1(F)CC=C(c2nccc(COc3ccc4cc3C[C@H](C(=O)O)Oc3ncnc5sc(-c6ccc(F)cc6)c(c35)-c3c(C)c(Cl)c(c(Cl)c3C)O[C@H](CN3CCN(C)CC3)CO4)n2)CC1` (single isomer, unassigned) [Example 86, (7R,16R)-19,23-dichloro-10-({2-[(4S*)-4-fluoro-4-{[2-(2-methoxyethoxy)ethoxy]methyl}cyclohex-1-en-1-yl]pyrimidin-4-yl}methoxy)-1-(4-fluorophenyl)-20,22-dimethyl-16-[(4-methylpiperazin-1-yl)methyl]-7,8,15,16-tetrahydro-18,21-etheno-13,9-(metheno)-6,14,17-trioxa-2-thia-3,5-diazacyclononadeca[1,2,3-cd]indene-7-carboxylic Acid], the values for the Ki at GST-MCL-1 (setting [3]) and on GST-MCL-1 (setting [4]) were 0.102 nM and 0.008 nM, respectively. For the same compound, the concentration for half-maximal inhibition (IC50) in test [1] (setting [7]) amounted to 0.000258 µM; in test [2] (setting [8]), 0.000105 µM.
As for `COCCOCCOCCOCCOCCOCC1(F)CC=C(c2nccc(COc3ccc4cc3C[C@H](C(=O)O)Oc3ncnc5sc(-c6ccc(F)cc6)c(c35)-c3c(C)c(Cl)c(c(Cl)c3C)O[C@H](CN3CCN(C)CC3)CO4)n2)CC1` (single isomer, unassigned) [Example 97, (7R,16R)-19,23-dichloro-10-({2-[(4S*)-4-fluoro-4-(2,5,8,11,14,17-hexaoxaoctadecan-1-yl)cyclohex-1-en-1-yl]pyrimidin-4-yl}methoxy)-1-(4-fluorophenyl)-20,22-dimethyl-16-[(4-methylpiperazin-1-yl)methyl]-7,8,15,16-tetrahydro-18,21-etheno-13,9-(metheno)-6,14,17-trioxa-2-thia-3,5-diazacyclononadeca[1,2,3-cd]indene-7-carboxylic Acid], the Ki on GST-MCL-1 (setting [3]) amounted to 0.137 nM; on GST-MCL-1 (setting [4]), 0.016 nM. Further, the IC50 is 0.000482 µM in test [1] (setting [7]) and 0.0006 µM in test [2] (setting [8]).
Turning to `COCCOCCOCCOCCOCCOCC1(F)CC=C(c2nccc(COc3ccc4cc3C[C@H](C(=O)O)Oc3ncnc5sc(-c6ccc(F)cc6)c(c35)-c3c(C)c(Cl)c(c(Cl)c3C)O[C@H](CN3CCN(C)CC3)CO4)n2)CC1` (single isomer, unassigned) [Example 100, (7R,16R)-19,23-dichloro-10-({2-[(4R*)-4-fluoro-4-(2,5,8,11,14,17-hexaoxaoctadecan-1-yl)cyclohex-1-en-1-yl]pyrimidin-4-yl}methoxy)-1-(4-fluorophenyl)-20,22-dimethyl-16-[(4-methylpiperazin-1-yl)methyl]-7,8,15,16-tetrahydro-18,21-etheno-13,9-(metheno)-6,14,17-trioxa-2-thia-3,5-diazacyclononadeca[1,2,3-cd]indene-7-carboxylic Acid], the figures for the inhibition constant (Ki) on GST-MCL-1 (setting [3]) and on GST-MCL-1 (setting [4]) were 0.176 nM and 0.017 nM, respectively. Besides, the IC50 was found to be 0.000547 µM in test [1] (setting [5]) and 0.00033 µM in test [2] (setting [6]).
As for `COCCOCCOCCOCC1(F)CC=C(c2nccc(COc3ccc4cc3C[C@H](C(=O)O)Oc3ncnc5sc(-c6ccc(F)cc6)c(c35)-c3c(C)c(Cl)c(c(Cl)c3C)O[C@H](CN3CCN(C)CC3)CO4)n2)CC1` (single isomer, unassigned) [Example 101, (7R,16R)-19,23-dichloro-1-(4-fluorophenyl)-10-({2-[(4S*)-4-fluoro-4-(2,5,8,11-tetraoxadodecan-1-yl)cyclohex-1-en-1-yl]pyrimidin-4-yl}methoxy)-20,22-dimethyl-16-[(4-methylpiperazin-1-yl)methyl]-7,8,15,16-tetrahydro-18,21-etheno-13,9-(metheno)-6,14,17-trioxa-2-thia-3,5-diazacyclononadeca[1,2,3-cd]indene-7-carboxylic Acid], the Ki was determined as 0.235 nM on GST-MCL-1 (setting [3]) and 0.02 nM at GST-MCL-1 (setting [4]). In addition, the half-inhibitory concentration (IC50) was found to be 0.000298 µM in test [1] (setting [7]) and 0.000195 µM in test [2] (setting [8]).
In the case of `COCCOCCOCCOCCOCC1(F)CC=C(c2nccc(COc3ccc4cc3C[C@H](C(=O)O)Oc3ncnc5sc(-c6ccc(F)cc6)c(c35)-c3c(C)c(Cl)c(c(Cl)c3C)O[C@H](CN3CCN(C)CC3)CO4)n2)CC1` (single isomer, unassigned) [Example 106, (7R,16R)-19,23-dichloro-10-({2-[(4R*)-4-fluoro-4-(2,5,8,11,14-pentaoxapentadecan-1-yl)cyclohex-1-en-1-yl]pyrimidin-4-yl}methoxy)-1-(4-fluorophenyl)-20,22-dimethyl-16-[(4-methylpiperazin-1-yl)methyl]-7,8,15,16-tetrahydro-18,21-etheno-13,9-(metheno)-6,14,17-trioxa-2-thia-3,5-diazacyclononadeca[1,2,3-cd]indene-7-carboxylic Acid], the inhibitory constant (Ki) at GST-MCL-1 (setting [3]) was 0.166 nM; at GST-MCL-1 (setting [4]) it was 0.036 nM. The IC50 in test [1] (setting [7]) is 0.000288 µM; in test [2] (setting [8]), 0.000216 µM.
In the case of `COCCOCCOCCOCC1(F)CC=C(c2nccc(COc3ccc4cc3C[C@H](C(=O)O)Oc3ncnc5sc(-c6ccc(F)cc6)c(c35)-c3c(C)c(Cl)c(c(Cl)c3C)O[C@H](CN3CCN(C)CC3)CO4)n2)CC1` (single isomer, unassigned) [Example 111, (7R,16R)-19,23-dichloro-1-(4-fluorophenyl)-10-({2-[(4R*)-4-fluoro-4-(2,5,8,11-tetraoxadodecan-1-yl)cyclohex-1-en-1-yl]pyrimidin-4-yl}methoxy)-20,22-dimethyl-16-[(4-methylpiperazin-1-yl)methyl]-7,8,15,16-tetrahydro-18,21-etheno-13,9-(metheno)-6,14,17-trioxa-2-thia-3,5-diazacyclononadeca[1,2,3-cd]indene-7-carboxylic Acid], the figures for the Ki on GST-MCL-1 (setting [3]) and at GST-MCL-1 (setting [4]) were 0.101 nM and 0.014 nM, respectively. The IC50 in test [1] (setting [5]) stood at 0.000298 µM; in test [2] (setting [6]), 0.000161 µM.
On to `COCCOCCOCCOCC1(C)CC=C(c2nccc(COc3ccc4cc3C[C@H](C(=O)O)Oc3ncnc5sc(-c6ccc(F)cc6)c(c35)-c3c(C)c(Cl)c(c(Cl)c3C)O[C@H](CN3CCN(C)CC3)CO4)n2)CC1` (single isomer, unassigned) [Example 112, (7R,16R)-19,23-dichloro-1-(4-fluorophenyl)-20,22-dimethyl-16-[(4-methylpiperazin-1-yl)methyl]-10-({2-[(4R*)-4-methyl-4-(2,5,8,11-tetraoxadodecan-1-yl)cyclohex-1-en-1-yl]pyrimidin-4-yl}methoxy)-7,8,15,16-tetrahydro-18,21-etheno-13,9-(metheno)-6,14,17-trioxa-2-thia-3,5-diazacyclononadeca[1,2,3-cd]indene-7-carboxylic Acid], for which the Ki amounted to 0.217 nM at GST-MCL-1 (setting [3]) and 0.012 nM on GST-MCL-1 (setting [4]). The figures for the IC50 in test [1] (setting [7]) and in test [2] (setting [8]) were 0.000283 µM and 0.000132 µM, respectively.

A word on the Ki: it is the equilibrium dissociation constant of an inhibitor or competing ligand from its target. As usually defined, the IC50 is the concentration needed to halve the response being measured.
